{"source": "patent US20210261528A1", "about": "“SALTS OF (S)-(5-CYCLOBUTOXY-2-METHYL-6-(1-(PIPERIDIN-4-YL)-1H-PYRAZOL-4-YL)-3,4-DIHYDROQUINOLIN-1(2H)-YL)(CYCLOPROPYL)METHANONE AND SOLID FORMS THEREOF” (FORMA Therapeutics, Inc., priority 2018, published 2021)", "type_in_all_cases": "physicochemical", "key": {"[1]": {"assay": "Chemical stability by HPLC-UV at 275 nm and 254 nm (Table 9)", "experimental": "High Pressure Liquid Chromatography (HPLC) data were obtained according to Tables 6 or 7, below:\nA standard stock was dissolved with diluent in a volumetric flask (e.g., 25 mg in 25 mL). This stock was vortexed and sonicated 10 sec to dissolve, and then diluted 1:10, 1:4, and 1:2 either in volumetric flasks or in HPLC vials to generate a standard curve. […] Where appropriate, a blank was created to accurately replicate the matrix of the analytical sample, and peaks appearing in the blank were identified before integration and quantification using Chemstation software.\nThe chemical stability of Succinate Form A was determined using HPLC-UV at 275 nm and 254 nm.\nThe chemical stability of Form G was determined using HPLC-UV at 275 nm and 254 nm."}, "[2]": {"assay": "Hygroscopicity evaluation by Dynamic Vapor Sorption (DVS) with XRPD of the solids after DVS", "details": "for behaviour at high humidity (DVS): >60% RH; for behaviour at high humidity (DVS) / hygroscopicity (DVS): 25° C.; for solid form after the DVS test: XRPD of solids after DVS; for hygroscopicity (DVS): absorption up to 80% RH", "experimental": "Dynamic Vapor Sorption (DVS) was obtained using a Surface Measurement Systems (SMS) DVS Intrinsic. The relative humidity at 25° C. were calibrated against deliquescence point of LiCl, Mg (NO3)2 and KCl."}, "[3]": {"assay": "Slurry turnover of Compound 2 Form B, Form I and Form G (Example 11, Table 25)", "details": "24 hours", "experimental": "To further study the form identity of Form B and Form I, slurry turnover experiments were performed in two solvents with the addition of Form G. Form B was dissolved in IPAc and MTBE respectively to get saturated solutions. Similar mass of Form B, G and I were weighed into a 2-mL vial, upon which the corresponding saturated solution was added to give the slurry, which was stirred at RT or 50° C. After slurry for 24 hours, the solids obtained were analyzed by XRPD."}, "[4]": {"assay": "Slurry competition between Compound 2 Form G and Form O for stability evaluation (Example 10, Table 24)", "details": "24 hours", "experimental": "The slurry competition experiments between the two anhydrates, Form G and Form O, were performed in two solvents, IPAc and MTBE, at RT and 50° C. for stability evaluation. Form O was dissolved in IPAc and MTBE respectively to get saturated solutions. Then, similar masses of Form G and Form O were added into a 2-mL vial, upon which the corresponding saturated solution was added to give the slurry, which was stirred at RT or 50° C. for 24 hours. The solids collected were analyzed by XRPD to confirm the form change."}, "[5]": {"assay": "Critical aw between Compound 2 Form G and Form I, slurry turnover in H2O/IPAc (Example 12, Table 26)", "details": "for Final Form: 24 hrs", "experimental": "To investigate the critical aw between hydrated Form I and the stable anhydrate, Form G, slurry turnover of Form I and Form G was conducted in a co-solvent system (H2O/IPAc) with different aw at RT and 50° C. Similar mass of Form G and Form I were added into a 2-mL vial, followed by adding solvent and stirring at RT or 50° C. for 24 hrs. The solids obtained were analyzed by XRPD to confirm the form change."}, "[6]": {"assay": "Aqueous solubility estimation of Compound 2 Form G, Form O and Form I at RT (Example 13, Table 27)", "details": "for Observation Initial / Observation 2 hrs: about 3 mg in 50 μL water; for Observation 2 hrs: stirred 2 hrs", "experimental": "Aqueous solubility tests at RT were conducted on the two potential anhydrates, Form G and O, and the hydrated Form I. About 3 mg of each form was weighed into a 2-mL vial. […] of water was added and stirred thoroughly at RT with the speed of 800 RPM."}}, "note": "Values joined by “and” are separate entries in the source; they are usually repeats but may differ in a detail not shown here. Identical values can stand only once. “Also recorded” adds a separate entry of the source.", "data": [{"smiles": "C[C@H]1CCc2c(ccc(-c3cnn(C4CCNCC4)c3)c2OC2CCC2)N1C(=O)C1CC1.O=C(O)CCC(=O)O", "note": "[A]", "values": [{"measurement": "% Claim (275 nm)", "setting": "[1]; 25° C./60% RH", "value": "98.3% and 99.8%"}, {"measurement": "% Purity (275 nm)", "setting": "[1]; 25° C./60% RH", "value": "98.64% and 98.78%"}, {"measurement": "% Claim (275 nm)", "setting": "[1]; initial", "value": 95.2, "unit": "%"}, {"measurement": "% Purity (275 nm)", "setting": "[1]; initial", "value": 98.73, "unit": "%"}]}, {"smiles": "C[C@H]1CCc2c(ccc(-c3cnn(C4CCNCC4)c3)c2OC2CCC2)N1C(=O)C1CC1.O=C(O)CCCCC(=O)O", "note": "[Adipate Form A]", "values": [{"measurement": "behaviour at high humidity (DVS)", "setting": "[2]", "value": "deliquescent"}, {"measurement": "solid form after the DVS test", "setting": "[2]", "value": "amorphous or jelly solids"}]}, {"smiles": "C[C@H]1CCc2c(ccc(-c3cnn(C4CCNCC4)c3)c2OC2CCC2)N1C(=O)C1CC1.O=C(O)CCC(=O)O", "note": "[Form B, (S)-(5-cyclobutoxy-2-methyl-6-(1-(piperidin-4-yl)-1H-pyrazol-4-yl)-3,4-dihydroquinolin-1(2H)-yl)(cyclopropyl)methanone succinate]", "values": [{"measurement": "solid form after the DVS test", "setting": "[2]; succinate", "value": "amorphous"}, {"measurement": "hygroscopicity (DVS)", "setting": "[2]; succinate", "value": "highly hygroscopic; also recorded: high hygroscopicity"}]}, {"smiles": "C[C@H]1CCc2c(ccc(-c3cnn(C4CCNCC4)c3)c2OC2CCC2)N1C(=O)C1CC1.O=C(O)CCC(=O)O", "note": "[Form B, G and I]", "values": [{"measurement": "Results (solid form after slurry turnover, XRPD)", "setting": "[3]; IPAc, 50° C.", "value": "Form G"}, {"measurement": "Results (solid form after slurry turnover, XRPD)", "setting": "[3]; IPAc, RT", "value": "Form G"}, {"measurement": "Results (solid form after slurry turnover, XRPD)", "setting": "[3]; MTBE, 50° C.", "value": "Form G"}, {"measurement": "Results (solid form after slurry turnover, XRPD)", "setting": "[3]; MTBE, RT", "value": "Form G"}]}, {"smiles": "C[C@H]1CCc2c(ccc(-c3cnn(C4CCNCC4)c3)c2OC2CCC2)N1C(=O)C1CC1.O=C(O)CCC(=O)O", "note": "[Form G and Form O]", "values": [{"measurement": "Results (solid form after slurry competition, XRPD)", "setting": "[4]; IPAc, 50° C.", "value": "Form G"}, {"measurement": "Results (solid form after slurry competition, XRPD)", "setting": "[4]; IPAc, RT", "value": "Form G"}, {"measurement": "Results (solid form after slurry competition, XRPD)", "setting": "[4]; MTBE, 50° C.", "value": "Form G"}, {"measurement": "Results (solid form after slurry competition, XRPD)", "setting": "[4]; MTBE, RT", "value": "Form G"}]}, {"smiles": "C[C@H]1CCc2c(ccc(-c3cnn(C4CCNCC4)c3)c2OC2CCC2)N1C(=O)C1CC1.O=C(O)CCC(=O)O", "note": "[Form I and Form G]", "values": [{"measurement": "Final Form", "setting": "[5]; H2O/IPAc (2.8:997.2, aw 0.18), 50° C.", "value": "Form G"}, {"measurement": "Final Form", "setting": "[5]; H2O/IPAc (2.8:997.2, aw 0.20), RT", "value": "Form G"}, {"measurement": "Final Form", "setting": "[5]; H2O/IPAc (6:994, aw 0.36), 50° C.", "value": "Form G"}, {"measurement": "Final Form", "setting": "[5]; H2O/IPAc (6:994, aw 0.40), RT", "value": "Form G"}, {"measurement": "Final Form", "setting": "[5]; H2O/IPAc (10:990, aw 0.55), 50° C.", "value": "Form G"}, {"measurement": "Final Form", "setting": "[5]; H2O/IPAc (10:990, aw 0.59), RT", "value": "Form G"}, {"measurement": "Final Form", "setting": "[5]; IPAc, 50° C.", "value": "Form G"}, {"measurement": "Final Form", "setting": "[5]; IPAc, RT", "value": "Form G"}]}, {"smiles": "C[C@H]1CCc2c(ccc(-c3cnn(C4CCNCC4)c3)c2OC2CCC2)N1C(=O)C1CC1.O=C(O)CCC(=O)O", "note": "[Form I, (S)-(5-cyclobutoxy-2-methyl-6-(1-(piperidin-4-yl)-1H-pyrazol-4-yl)-3,4-dihydroquinolin-1(2H)-yl)(cyclopropyl)methanone succinate]", "values": [{"measurement": "solid form after the DVS test", "setting": "[2]; succinate", "value": "amorphous"}, {"measurement": "hygroscopicity (DVS)", "setting": "[2]; succinate", "value": "high hygroscopicity"}, {"measurement": "weight change before 60% RH (DVS)", "setting": "[2]; before 60% RH", "value": "minor weight change"}, {"measurement": "Observation Initial", "setting": "[6]", "value": "Little solid"}, {"measurement": "Observation 2 hrs", "setting": "[6]", "value": "Clear"}, {"measurement": "stability under ambient conditions compared to Form G", "setting": "[5]; different aw", "value": "did not appear to have any stability"}]}, {"smiles": "C[C@H]1CCc2c(ccc(-c3cnn(C4CCNCC4)c3)c2OC2CCC2)N1C(=O)C1CC1.O=C(O)CCC(=O)O", "note": "[Form M, (S)-(5-cyclobutoxy-2-methyl-6-(1-(piperidin-4-yl)-1H-pyrazol-4-yl)-3,4-dihydroquinolin-1(2H)-yl)(cyclopropyl)methanone succinate]", "values": [{"measurement": "solid form after the DVS test", "setting": "[2]; succinate", "value": "amorphous"}, {"measurement": "hygroscopicity (DVS)", "setting": "[2]; succinate", "value": "highly hygroscopic; also recorded: high hygroscopicity"}]}, {"smiles": "C[C@H]1CCc2c(ccc(-c3cnn(C4CCNCC4)c3)c2OC2CCC2)N1C(=O)C1CC1.O=C(O)CCC(=O)O", "note": "[Form O, (S)-(5-cyclobutoxy-2-methyl-6-(1-(piperidin-4-yl)-1H-pyrazol-4-yl)-3,4-dihydroquinolin-1(2H)-yl)(cyclopropyl)methanone succinate]", "values": [{"measurement": "solid form after the DVS test", "setting": "[2]; succinate", "value": "amorphous"}, {"measurement": "hygroscopicity (DVS)", "setting": "[2]; succinate", "value": "highly hygroscopic; also recorded: high hygroscopicity"}, {"measurement": "Observation Initial", "setting": "[6]", "value": "Little solid"}, {"measurement": "Observation 2 hrs", "setting": "[6]", "value": "Clear"}, {"measurement": "solubility at 2 h", "setting": "[6]; thermodynamic from solid, water, stirring 2 hrs at 800 RPM", "value": "> 60", "unit": "mg/mL"}]}, {"smiles": "C[C@H]1CCc2c(ccc(-c3cnn(C4CCNCC4)c3)c2OC2CCC2)N1C(=O)C1CC1.O=C(O)/C=C/C(=O)O", "note": "[Fumarate Form A]", "values": [{"measurement": "behaviour at high humidity (DVS)", "setting": "[2]", "value": "deliquescent"}, {"measurement": "solid form after the DVS test", "setting": "[2]", "value": "amorphous or jelly solids"}]}, {"smiles": "C[C@H]1CCc2c(ccc(-c3cnn(C4CCNCC4)c3)c2OC2CCC2)N1C(=O)C1CC1.O=C(O)/C=C/C(=O)O", "note": "[Fumarate Form B]", "values": [{"measurement": "behaviour at high humidity (DVS)", "setting": "[2]", "value": "deliquescent"}, {"measurement": "solid form after the DVS test", "setting": "[2]", "value": "amorphous or jelly solids"}]}, {"smiles": "C[C@H]1CCc2c(ccc(-c3cnn(C4CCNCC4)c3)c2OC2CCC2)N1C(=O)C1CC1.O=C(O)/C=C/C(=O)O", "note": "[Fumarate Form C]", "values": [{"measurement": "behaviour at high humidity (DVS)", "setting": "[2]", "value": "deliquescent"}, {"measurement": "solid form after the DVS test", "setting": "[2]", "value": "amorphous or jelly solids"}]}, {"smiles": "C[C@H]1CCc2c(ccc(-c3cnn(C4CCNCC4)c3)c2OC2CCC2)N1C(=O)C1CC1.O=C(O)CCC(=O)O", "note": "[G]", "values": [{"measurement": "% Claim (275 nm)", "setting": "[1]; 25° C./60% RH", "value": "104% and 106% and 107% and 103%"}, {"measurement": "% Purity (275 nm)", "setting": "[1]; 25° C./60% RH", "value": "98.84% and 98.86%"}, {"measurement": "% Claim (275 nm)", "setting": "[1]; 40° C./75% RH", "value": "106% and 96.3% and 101%"}, {"measurement": "% Purity (275 nm)", "setting": "[1]; 40° C./75% RH", "value": "98.51% and 98.33% and 97.37% and 96.72%"}, {"measurement": "% Claim (275 nm)", "setting": "[1]; 50° C.", "value": "100% and 101% and 104%"}, {"measurement": "% Purity (275 nm)", "setting": "[1]; 50° C.", "value": "98.69% and 97.37% and 97.79%"}, {"measurement": "% Claim (275 nm)", "setting": "[1]; 50° C.*", "value": 98.1, "unit": "%"}, {"measurement": "% Purity (275 nm)", "setting": "[1]; 50° C.*", "value": 94.24, "unit": "%"}, {"measurement": "% Claim (275 nm)", "setting": "[1]; Post DVS", "value": 73.5, "unit": "%"}, {"measurement": "% Purity (275 nm)", "setting": "[1]; Post DVS", "value": 98.91, "unit": "%"}, {"measurement": "% Claim (275 nm)", "setting": "[1]; RT", "value": "106% and 103% and 107%"}, {"measurement": "% Purity (275 nm)", "setting": "[1]; RT", "value": "98.85% and 98.88% and 98.82% and 98.86%"}, {"measurement": "% Claim (275 nm)", "setting": "[1]; initial", "value": 102, "unit": "%"}, {"measurement": "% Purity (275 nm)", "setting": "[1]; initial", "value": 98.84, "unit": "%"}]}]}
